Data on 20 compounds can be found in PubChem BioAssay AID2738 (Broad Institute, 2010).

Active and inactive are the calls of the source.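 Rule for the calls: active = IC50 at or below ten times the top tested concentration; inconclusive = flat fit at 30 to 70% inhibition, or invalid poor fit; inactive = IC50 beyond ten times the top tested dose.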 Some results are limits rather than exact numbers.

The target in this assay is POS-1 (Caenorhabditis elegans) binding to mex-3 RNA. Put plainly: inhibitors of POS-1/mex-3 RNA binding, dose response, biochemical, fluorescence polarization, up to 135 µM (AID 2738). As to conditions: POS-1-MBP / FITC mex-3 RNA. (In general: Fluorescence polarisation rises when a labelled molecule tumbles more slowly, as on binding a larger partner.)
Broadly, the IC50 is the concentration that gives 50% inhibition. Regarding `CCN(CC)c1ccc(/C=C2\C(=O)NC(=S)N(c3ccc(OC)cc3OC)C2=O)o1`, the IC50 was > 135 µM (inactive).
In the case of `N=c1c(C(=O)NC2CCCCC2)cc2c(=O)n3ccccc3nc2n1Cc1cccnc1` it was > 350 µM (inactive).
Take `Cc1nc2ccccc2c(=O)n1/N=C/c1ccc(O)c(O)c1O`: the half-maximal inhibitory concentration (IC50) is 16.9 µM.
In the case of `CCCCN(C)C(=O)CCC(=O)NNc1nc2ccccc2c2nc(C)nn12` it was 62.3 µM; in that of `CCc1ccccc1N1C(=O)/C(=C\c2ccc(N3CCN(C)CC3)o2)C(=O)NC1=S`, > 135 µM (inactive).
The value for `CCOC(=O)c1cc(CC)sc1/N=C/c1c(O)[nH]c(=S)[nH]c1=O` was 45.5 µM; that for `Cn1ncc2c(NNC(=O)Cc3ccccc3)ncnc21` was 127 µM; that for `O=CN/N=C/c1c(O)ccc2ccccc12` was 22 µM.
The value for `Oc1ccc(CCNc2c3ccccc3nc3ccccc23)cc1O` was > 135 µM (inactive); that for `COCCCNC(=O)CCC(=O)NNc1nc2ccccc2c2nc(C)nn12` was 8.56 µM.
For the compound `CCN(CC)CCCNC(=O)CCC(=O)NNc1nc2ccccc2c2nc(C)nn12`, the half-inhibitory concentration (IC50) is 2.2 µM.
In the case of `NC(CO)C(=O)NNCc1ccc(O)c(O)c1O` (stereo not given) it was > 135 µM (inactive); in that of `O=c1c(O)cccc2cc(O)c(O)c(O)c12`, 11.9 µM.
In the case of `CCN(CC)c1ccc(/C=C2\C(=O)NC(=S)N(C)C2=O)o1` it was > 135 µM (inactive); in that of `COc1ccc(-c2cn[nH]c2-c2ccc(OCC(=O)NN)cc2O)cc1OC`, > 135 µM (inactive).
Turning to `ON=C1/C(=N\O)CC2(C/C1=N/O)OCCO2`, the IC50 was > 135 µM (inactive).
In the case of `CC1=C(C(=O)OCc2ccccc2)C(c2ccccc2[N+](=O)[O-])NC(=O)N1C` (stereo not given) it was 25.6 µM; in that of `O=C(NNC(=O)c1ccccc1[N+](=O)[O-])c1csc(N2CCOCC2)n1`, 119 µM; in that of `Cc1ncc(CO)c(/C=N/NC(=O)c2cc(Br)ccc2O)c1O`, 51.2 µM.
The value for `Cc1ccc(N2C(=O)NC(=O)/C(=C\c3cc(C)n(-c4ccc(C(=O)O)cc4)c3C)C2=O)cc1` was > 135 µM (inactive).
